# In patent publication US9359346B2, “Benzamide derivative and use thereof” (VIVOZON, INC., priority 2011, dated 2016):
# Read-outs that look alike come from different tables or passages of the source.
# Columns and labels:
# formalin model = experiment: Formalin pain model, licking and shaking; format: in vivo, rat; conditions: for pain relieving effect, antagonist alone: single administration, FIG. 26(a); for pain behavior (licking and shaking) induced by formalin: 12.5, 25 and 50 mg/kg, 5% formalin i.pl., FIGS. 23 and 24
# [1] = system: neuropathic pain model (Chung model); experiment: Neuropathic pain model (Chung model, SNL), paw withdrawal threshold; format: in vivo, rat; conditions: for pain suppression efficacy, antagonist alone: single administration, ORG-25543 10 or 20 mg/kg, FIG. 25(a)
# [2] = system: poly-L-arginine-derived itching; experiment: Itching model, poly-L-arginine-derived itching; format: in vivo, rat; conditions: 50 mg/kg s.c.; poly-L-arginine 200 μg/50 μl intradermal; vs naloxone 5 mg/kg intraperitoneal
# [3] = system: serotonin-derived itching; experiment: Itching model, serotonin-derived itching; format: in vivo, rat; conditions: 50 mg/kg s.c.; serotonin 25 μg/50 μl intradermal; vs naloxone 5 mg/kg intraperitoneal
# GlyT2 = target: T1, GlyT2 (Rattus norvegicus, UniProt P58295); experiment: FLIPR membrane potential assay for GlyT2 target activity (T-rex-293-rGlyT2 cells); format: cell-based; conditions: read-out: GlyT2 % inhibition
# T1 construct: expressed in transfected cells
# T1 sequence (P58295 1-799): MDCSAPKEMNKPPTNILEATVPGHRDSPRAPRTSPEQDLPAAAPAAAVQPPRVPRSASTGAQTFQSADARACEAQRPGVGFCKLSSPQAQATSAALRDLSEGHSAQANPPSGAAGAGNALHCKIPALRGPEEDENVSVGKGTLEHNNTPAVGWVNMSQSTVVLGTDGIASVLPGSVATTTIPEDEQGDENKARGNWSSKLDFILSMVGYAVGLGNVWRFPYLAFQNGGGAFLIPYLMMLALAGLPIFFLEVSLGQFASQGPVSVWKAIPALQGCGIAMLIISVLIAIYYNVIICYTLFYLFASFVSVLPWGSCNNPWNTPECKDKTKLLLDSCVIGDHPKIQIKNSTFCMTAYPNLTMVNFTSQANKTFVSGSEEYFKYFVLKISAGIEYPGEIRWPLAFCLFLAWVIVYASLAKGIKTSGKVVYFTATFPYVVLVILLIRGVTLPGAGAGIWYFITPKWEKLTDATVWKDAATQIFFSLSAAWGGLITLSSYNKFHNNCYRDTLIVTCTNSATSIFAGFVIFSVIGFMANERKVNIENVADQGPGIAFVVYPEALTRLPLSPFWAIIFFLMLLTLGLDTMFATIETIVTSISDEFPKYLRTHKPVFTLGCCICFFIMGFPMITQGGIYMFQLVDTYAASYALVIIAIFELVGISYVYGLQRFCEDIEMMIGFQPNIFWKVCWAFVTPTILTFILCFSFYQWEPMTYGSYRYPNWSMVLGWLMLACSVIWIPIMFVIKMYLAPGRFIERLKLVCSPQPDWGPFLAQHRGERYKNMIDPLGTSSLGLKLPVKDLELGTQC
# Method: GlyT2 (Glycine transporter type 2) is an electrogenic carrier associated with Na^+/Cl^− ion transportation, primarily distributed around the spinal cord part, and has an important role in the transfer of a pain signal in the spinal cord.
# In order to identify the fact that the novel compound of the present invention has GlyT2 targeting activity, a membrane potential assay was performed. FLIPR Membrane Potential Assay is used to measure ion channel modulation caused by an increase or decrease in fluorescence signal due to variations of cellular membrane potential.
# First, pcDNA4/TO vector encoding GlyT2 of the rat in HEK293 cell was transfected to prepare a stable recombinant cell line, i.e., T-rex-293-rGlyT2. A […] (Greiner #655090) coated with poly-D-lysine was prepared, and the above recombinant cells (T-rex-293-rGlyT2) were seeded at 3.2×10^4/well therein using a medium containing 15 μg/ml of tetracycline. After this, incubation was conducted at 37° C. for 48 hours under 5% CO2 conditions to express GlyT2. 10 ml of assay buffer (1×HBSS, 20 mM HEPES, pH 7.4) was added to a blue dye solution and sufficiently dissolved therein to prepare a membrane potential dye solution. After removing the medium from the well showing GlyT2 expression, the membrane potential dye solution was added to the well in an amount of 100 μl/well and incubated for 20 minutes.
# According to the FLIPR Membrane Potential Assay kit's protocol, SoftMax Pro Software of FlexStation 3 software (Molecular Devices, US) was set up. An extent of GlyT2 expression was determined such that the extent of cellular membrane depolarization relative to an administered amount of glycine during glycine treatment is indicated in relative fluorescence units (RFU), and RFU (Max-Min) is calculated by subtracting the minimum value from the maximum value of RFU. After firstly treating 10 uM of the novel compound according to the present invention, glycine was treated and RFU (Max-Min) for glycine administration was determined. Then, with the determined result, the extent of depolarization inhibition (% inhibition) was assessed for each compound, compared to a positive control.
# The positive control used herein was ORG25543 (500 nM) having strong inhibitory efficacy specific to GlyT2.
# For GlyT2 inhibitory efficacy, the efficacy of the compound ORG25543 (500 nM) was defined as 100%. Similarly, for 5HT2A inhibitory efficacy, the efficacy of MDL11939 (100 nM) was defined as 100%. Therefore, the target inhibitory efficacy of each compound was indicated in a relative value compared to the above defined efficacy.
# 5HT2A = 5HT2A (Homo sapiens, UniProt P28223); experiment: FLIPR calcium assay for 5HT2A target activity (transfected HEK293 cells); format: cell-based
# Chain of 5HT2A (P28223 whole entry, species assumed): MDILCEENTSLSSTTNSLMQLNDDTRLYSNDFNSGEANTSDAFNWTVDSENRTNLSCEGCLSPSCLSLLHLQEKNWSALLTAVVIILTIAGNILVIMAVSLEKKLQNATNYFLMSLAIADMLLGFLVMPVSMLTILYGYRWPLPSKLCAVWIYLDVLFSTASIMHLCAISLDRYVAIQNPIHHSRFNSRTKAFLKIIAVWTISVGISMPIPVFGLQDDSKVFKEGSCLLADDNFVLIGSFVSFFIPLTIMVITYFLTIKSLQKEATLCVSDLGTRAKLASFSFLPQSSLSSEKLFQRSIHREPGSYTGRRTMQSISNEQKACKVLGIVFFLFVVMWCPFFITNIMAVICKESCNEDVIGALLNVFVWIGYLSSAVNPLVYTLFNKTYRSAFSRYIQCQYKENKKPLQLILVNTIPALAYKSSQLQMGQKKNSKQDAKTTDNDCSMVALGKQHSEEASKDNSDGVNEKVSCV
# [4] = 10 uM compound, then glycine, relative to ORG25543 (500 nM) defined as 100%
# [5] = HEK293, 10 uM compound, then serotonin, relative to MDL11939 (100 nM) defined as 100%, read-out: 5HT2A % inhibition
# [6] = subcutaneous 50 mg/kg or oral 100 mg/kg, gabapentin 55 to 70 mg/kg intraperitoneal, FIGS. 1 to 22
# [7] = HEK293, read-out: 5HT2A % inhibition
SMILES,"pain relieving effect, antagonist alone (formalin model)","pain suppression efficacy, antagonist alone [1]",itching behavior (number and duration of scratching) induced by poly-L-arginine [2],itching behavior (number and duration of scratching) induced by serotonin [3],inhibition at 10 µM (GlyT2; [4]),inhibition at 10 µM (5HT2A; [5]),pain behavior (licking and shaking) induced by formalin (formalin model),"analgesic efficacy compared to GBP positive control [1, 6]",inhibition at 10 µM (5HT2A; [7]),further results
"OC(c1ccccc1)C1CCN(CCc2ccccc2)CC1 (centres unmarked) [MDL 11,939, reference compound]",no or very little pain relieving effect,no or very little pain relieving effect,–,–,–,–,–,–,–,–
CCCCOc1c(OC)cc(C(=O)NCC2(NC)CCOCC2)cc1OC [VVZ-068],–,–,suppressing itching behavior,suppressing itching behavior,105%,69.1%,suppressing pain behavior induced by formalin,analgesic efficacy substantially equal to 0 °C superior to GBP,–,–
CCCCOc1c(OC)cc(C(=O)NCC2(N(C)CC)CCOCC2)cc1OC [VVZ-041],–,–,–,–,79.2%,105%,–,analgesic efficacy substantially equal to 0 °C superior to GBP,–,–
CCCCOc1c(OC)cc(C(=O)NCC2(N(C)C)CCOCC2)cc1OC [VVZ-005],–,–,suppressing itching behavior,suppressing itching behavior,–,–,suppressing pain behavior induced by formalin,–,61.2%,"inhibition at 10 µM (GlyT2): 101%; analgesic efficacy compared to GBP positive control ([1]; rat, in vivo): analgesic efficacy substantially equal to 0 °C superior to GBP"
CCCCOc1c(OC)cc(C(=O)NCC(c2ccc(OC)cc2)N(C)C)cc1OC (centres unmarked) [VVZ-024],–,–,–,–,96.7%,–,–,analgesic efficacy substantially equal to 0 °C superior to GBP,70.5%,–
"COc1cc(C(=O)NCC2(N(C)C)CCCC2)cc(OC)c1OCc1ccccc1 [ORG-25543, reference compound]",no or very little pain relieving effect,did not show pain suppression efficacy,–,–,–,–,–,–,–,"pain suppression efficacy, antagonist alone ([1]; listed as ORG2553): no or very little pain relieving effect"
